From patent US8586611B2 (priority 2005, dated 2013)
Where two headings read alike, the source gives them in different places.

Experiments:
Type in all cases: in vivo
Phytophthora infestans [1] = experiment: whole plant or invertebrate; conditions: for Test C disease rating (100 = 100% disease control, 0 = no disease control): tomato late blight
[2] = tested on: Erysiphe graminis f. sp. tritici; experiment: Test E: wheat powdery mildew, spray the day before inoculation (disease rating, 100 = 100% disease control)
In short: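 Wheat seedlings sprayed to run-off with compound suspended in acetone/water 50/50 with 250 ppm Trem 014 (200 ppm equivalent to 500 g/ha); inoculated next day with Erysiphe graminis f. sp. tritici spore dust. Kept 7 days at 20° C, then rated 0–100% disease control versus controls.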

Phytophthora infestans [3] = experiment: whole plant or invertebrate; conditions: for Test D disease rating (100 = 100% disease control, 0 = no disease control): tomato late blight
Plasmopara viticola = experiment: Test B: grape downy mildew, spray 24 h after inoculation (disease rating, 100 = 100% disease control)
In short: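 Grape seedlings were inoculated with Plasmopara viticola and held 24 h saturated at 20 °C, then sprayed to run-off with compound suspension (acetone/water with 250 ppm Trem 014; 200 ppm ≈ 500 g/ha). After 5 days at 20 °C and 24 h saturation, disease was rated from 0 to 100% control versus untreated.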

[4] = sprayed the day before inoculation, unmarked compounds (no asterisk, not 40 or 10 ppm)
[5] = sprayed the day before inoculation, 7 days at 20° C., unmarked compounds (no asterisk, not 40 or 10 ppm)
[6] = sprayed 17 h after inoculation, unmarked compounds (no asterisk, not 40 or 10 ppm)
[7] = sprayed 24 h after inoculation, unmarked compounds (no asterisk, not 40 or 10 ppm)
[8] = spray the day before inoculation, compounds without asterisk (not 40 or 10 ppm)
[9] = spray 17 h after inoculation, compounds without asterisk (not 40 or 10 ppm)
[10] = spray 24 h after inoculation, compounds without asterisk (not 40 or 10 ppm)
[11] = spray the day before inoculation, tested at 40 ppm
[12] = spray 17 h after inoculation, tested at 40 ppm
[13] = spray 24 h after inoculation, tested at 40 ppm
[14] = spray the day before inoculation, tested at 10 ppm
[15] = spray 17 h after inoculation, tested at 10 ppm
[16] = spray 24 h after inoculation, tested at 10 ppm

Row | SMILES | Test C disease rating (100 = 100% disease control, 0 = no disease control) (Phytophthora infestans [1]; [4]) | Test E disease rating (100 = 100% disease control, 0 = no disease control) [2, 5] | Test D disease rating (100 = 100% disease control, 0 = no disease control) (Phytophthora infestans [3]; [6]) | Test B disease rating (100 = 100% disease control, 0 = no disease control) (Plasmopara viticola; [7]) | Test C disease rating (100 = 100% disease control, 0 = no disease control) (Phytophthora infestans [1]; [8]) [%] | Test E disease rating (100 = 100% disease control, 0 = no disease control) [2, 8] [%] | Test D disease rating (100 = 100% disease control, 0 = no disease control) (Phytophthora infestans [3]; [9]) [%] | Test B disease rating (100 = 100% disease control, 0 = no disease control) (Plasmopara viticola; [10]) [%] | further results
1 | Cc1cc(C(F)(F)F)nn1CC(=O)N1CCC(c2nc(C(=O)N3CCCCC3)cs2)CC1 [compound 307] | 100 | 0 | 26 | 79 |  |  |  |  | 
2 | Cc1cc(C(F)(F)F)nn1CC(=O)N1CCC(n2cc(C(=O)N(C)[C@@H]3CCCc4ccccc43)nn2)CC1 [compound 217] |  |  |  |  | 99 | 0 | 40 | 52 | 
3 | CN(Cc1ccncc1)C(=O)c1csc(C2CCN(C(=O)Cc3cccc(C(F)(F)F)c3)CC2)n1 [compound 169] |  |  |  |  | 68 | 0 | 0 | 8 | 
4 | Cc1cc(C(F)(F)F)nn1CC(=O)N1CCC(c2nc(C(=O)N(C)C3CC(CO)c4ccccc43)cs2)CC1 (stereo not shown) [compound 235] |  |  |  |  | 100 | 0 | 99 | 94 | 
5 | Cc1cc(C(F)(F)F)nn1CC(=O)N1CCC(c2nc(C(=O)N(C)C3CCCc4sccc43)cs2)CC1 (stereo not shown) [compound 182] |  |  |  |  |  |  |  |  | Test C disease rating (100 = 100% disease control, 0 = no disease control) (Phytophthora infestans [1]; [11]): 100%; Test E disease rating (100 = 100% disease control, 0 = no disease control) [2, 11]: 0%; Test D disease rating (100 = 100% disease control, 0 = no disease control) (Phytophthora infestans [3]; [12]): 98%; Test B disease rating (100 = 100% disease control, 0 = no disease control) (Plasmopara viticola; [13]): 99%
6 | Cc1cc(C(F)(F)F)nn1CC(=O)N1CCC(c2nc(C(=O)N3Cc4ccccc4C3)cs2)CC1 [compound 295] | 95 | 0 | 39 | 39 |  |  |  |  | 
7 | Cc1cc(C(F)(F)F)nn1CC(=O)N1CCC(c2nc(C(=O)N(C)C3c4ccccc4CCC3O)cs2)CC1 (stereo not shown) [compound 194] |  |  |  |  |  |  |  |  | Test C disease rating (100 = 100% disease control, 0 = no disease control) (Phytophthora infestans [1]; [11]): 98%; Test E disease rating (100 = 100% disease control, 0 = no disease control) [2, 11]: 0%; Test D disease rating (100 = 100% disease control, 0 = no disease control) (Phytophthora infestans [3]; [12]): 74%; Test B disease rating (100 = 100% disease control, 0 = no disease control) (Plasmopara viticola; [13]): 0%
8 | C[C@H](c1ccccc1)N(C)C(=O)c1csc(C2CCN(C(=O)Cc3cccc(F)c3F)CC2)n1 [compound 46] |  |  |  |  |  |  |  |  | Test C disease rating (100 = 100% disease control, 0 = no disease control) (Phytophthora infestans [1]; [11]): 0%; Test E disease rating (100 = 100% disease control, 0 = no disease control) [2, 11]: 0%; Test D disease rating (100 = 100% disease control, 0 = no disease control) (Phytophthora infestans [3]; [12]): 0%; Test B disease rating (100 = 100% disease control, 0 = no disease control) (Plasmopara viticola; [13]): 0%
9 | Cc1cc(C(F)(F)F)nn1CC(=O)N1CCC(c2nc(C(=O)N3CCCC4CCCCC43)cs2)CC1 (stereo not shown) [compound 300] | 97 | 0 | 58 | 62 |  |  |  |  | 
10 | CC[C@H](c1ccccc1)N(C)C(=O)c1coc(C2CCN(C(=O)Cc3cc(C)ccc3C)CC2)n1 [Compound 154, 2-[1-[(2,5-dimethylphenyl)acetyl]-4-piperidinyl]-N-methyl-N-[(1R)-1-phenylpropyl]-4-oxazolecarboxamide] |  |  |  |  |  |  |  |  | pest or weed control at 40 ppm (Phytophthora infestans [1]; Phytophthora infestans, in Solanum lycopersicum, 144 h, read-out: Test C disease rating (100 = 100% disease control, 0 = no disease control)): 100%; pest or weed control at 40 ppm ([2]; Blumeria graminis, topical, 168 h, spray the day before inoculation, tested at 40 ppm, read-out: Test E disease rating (100 = 100% disease control, 0 = no disease control)): 0%; pest or weed control at 40 ppm (Phytophthora infestans [3]; Phytophthora infestans, in Solanum lycopersicum, topical, 96 h, read-out: Test D disease rating (100 = 100% disease control, 0 = no disease control)): 68%; pest or weed control at 40 ppm (Plasmopara viticola; Plasmopara viticola, 144 h, spray 24 h after inoculation, tested at 40 ppm, read-out: Test B disease rating (100 = 100% disease control, 0 = no disease control)): 99%
11 | Cc1cnn(CC(=O)N2CCC(c3nc(C(=O)N(C)[C@H](C)c4ccccc4)cs3)CC2)c1 [compound 73] |  |  |  |  | 75 | 0 | 9 | 2 | 
12 | Cc1cc(C(F)(F)F)nn1CC(=O)N1CCC(c2nc(C(=O)NC3CCCc4ccccc43)cs2)CC1 (stereo not shown) [compound 294] | 100 | 0 | 96 | 99 |  |  |  |  | 
13 | Cc1ccc(C)c(CC(=O)N2CCC(c3nc(C(=O)N(C)[C@@H]4CCc5ccccc54)cs3)CC2)c1 [compound 130] |  |  |  |  | 54 | 0 | 100 | 99 | 
14 | CN(C(=O)c1csc(C2CCN(C(=O)Cc3ccccn3)CC2)n1)[C@@H]1CCCc2ccccc21 [compound 205] |  |  |  |  | 75 | 0 | 17 | 0 | 
15 | Cc1cn(CC(=O)N2CCC(c3nc(C(=O)N(C)[C@H](C)c4ccccc4)cs3)CC2)c(C)n1 [compound 121] |  |  |  |  | 47 | 0 | 0 | 0 | 
16 | CC(C)c1cc(C(F)(F)F)nn1CC(=O)N1CCC(c2nc(C(=O)N(C)[C@@H]3CCCc4ccccc43)cs2)CC1 [compound 240] |  |  |  |  |  |  |  |  | Test C disease rating (100 = 100% disease control, 0 = no disease control) (Phytophthora infestans [1]; [14]): 100%; Test E disease rating (100 = 100% disease control, 0 = no disease control) [2, 14]: 0%; Test D disease rating (100 = 100% disease control, 0 = no disease control) (Phytophthora infestans [3]; [15]): 99%; Test B disease rating (100 = 100% disease control, 0 = no disease control) (Plasmopara viticola; [16]): 99%
17 | C[C@@H](NC(=O)c1csc(C2CCN(C(=O)Cc3cccc(Br)c3)CC2)n1)c1ccccc1F [compound 276] | 17 | 0 | 0 | 30 |  |  |  |  | 
18 | CCN(C(=O)c1csc(C2CCN(C(=O)Cc3cc(C)ccc3C)CC2)n1)[C@H](C)c1ccccc1 [compound 286] | 23 | 52 | 0 | 39 |  |  |  |  | 
19 | CN(Cc1ccccn1)C(=O)c1csc(C2CCN(C(=O)Cc3cccc(C(F)(F)F)c3)CC2)n1 [compound 168] |  |  |  |  | 8 | 0 | 0 | 15 | 
20 | Cc1cc(C(F)(F)F)nn1CC(=O)N1CCC(c2nc(C(=O)N(C)C3CCSc4ccccc43)cs2)CC1 (stereo not shown) [compound 180] |  |  |  |  |  |  |  |  | Test C disease rating (100 = 100% disease control, 0 = no disease control) (Phytophthora infestans [1]; [14]): 100%; Test E disease rating (100 = 100% disease control, 0 = no disease control) [2, 14]: 0%; Test D disease rating (100 = 100% disease control, 0 = no disease control) (Phytophthora infestans [3]; [15]): 92%; Test B disease rating (100 = 100% disease control, 0 = no disease control) (Plasmopara viticola; [16]): 47%
21 | Cc1cc(C(F)(F)F)nn1CC(=O)N1CCC(c2nc(C(=O)N3CC=CCC3)cs2)CC1 [compound 310] | 73 | 0 | 9 | 47 |  |  |  |  | 
22 | Cc1cc(C)nc(CC(=O)N2CCC(c3nc(C(=O)N(C)[C@@H]4CCCc5ccccc54)cs3)CC2)c1 [compound 215] |  |  |  |  | 100 | 0 | 99 | 0 | 
23 | Cc1ccc(C)c(CC(=O)N2CCC(c3nc(C(=O)N(C)[C@H]4CCCc5ccccc54)cs3)CC2)c1 [compound 133] |  |  |  |  | 53 | 0 | 79 | 77 | 
24 | CCC1C=Cc2ccccc2C1N(C)C(=O)c1csc(C2CCN(C(=O)Cn3nc(C(F)(F)F)cc3C)CC2)n1 (stereo not shown) [compound 228] |  |  |  |  | 100 | 0 | 99 | 88 | 
25 | Cc1ccc([C@@H](C)NC(=O)c2csc(C3CCN(C(=O)Cc4cccc(Br)c4)CC3)n2)cc1 [compound 274] | 37 | 0 | 0 | 29 |  |  |  |  | 
